± gives the standard deviation of the averaged measurements.
Key:
Test in all cases: CTG-3D luminescence at 96 h relative to day-0 seeding control (ratio to day 0); higher = more growth / less cytotoxicity; PDxO 3D drug screen (set 2), 96 h, CTG-3D normalised to day-0 seeding control.
HCI-024 = tested on: HCI-024 (organoid from a breast cancer xenograft)
HCI-023 = tested on: HCI-023 (organoid from a triple-negative breast cancer xenograft)
HCI-017.E2 = tested on: HCI-017.E2 (organoid from an ER-positive breast cancer xenograft)
HCI-008 = tested on: HCI-008 (organoid from a HER2-enriched breast cancer xenograft)
HCI-025 = tested on: HCI-025 (organoid from a breast cancer xenograft)

Nc1cc(C(F)(F)F)c(-c2cc(N3CCOCC3)nc(N3CCOCC3)n2)cn1 [buparlisib]
CTG-3D luminescence at 96 h
Conditions	12.5 pM	0.00025 µM	0.005 µM	0.1 µM	1 µM	10 µM	100 µM	625 fM
HCI-008, days in culture: 325	0.757	2.89	2.4	2.51	1.17	0.647	0.313	1.94
HCI-008, days in culture: 340	0.632	2.38	1.94	1.55	1.56	–	0.305	1.04
HCI-008, days in culture: 354	0.796	1.19	2.59	1.46	0.578	0.294	0.327	1.16
HCI-008, days in culture: 382	1.52	1.82	1.45	1.71	0.652	0.363	0.104	1.9
HCI-017.E2, days in culture: 85	2.1	1.79	1.67	1.9	0.668	0.194	0.256	2.53
HCI-023, days in culture: 223	2.1	2.58	1.97	2.26	0.929	0.895	1.04	2.64
HCI-023, days in culture: 238	1.41	1.77	1.57	1.4	1.23	0.672	0.628	1.46
HCI-023, days in culture: 252	2.06	2.07	1.65	2.23	1.58	0.8	0.794	2.06
HCI-024, days in culture: 202	0.94	1.8	0.863	1.75	0.649	0.995	0.453	1.69
HCI-024, days in culture: 231	0.962	1.28	0.905	1.7	0.751	0.659	0.357	1.23
HCI-024, days in culture: 254	1.89	0.93	0.779	1.12	1.08	0.637	0.959	2.39
HCI-025, days in culture: 175	1.38	1.85	1.95	1.88	1.75	0.433	0.118	1.71
HCI-025, days in culture: 189	2.47	2.03	1.96	1.69	1.36	0.246	0.0627	2.83
HCI-025, days in culture: 212	3.39	3.81	2.06	1.13	1.13	0.331	0.0312	1.54
HCI-025, days in culture: 224	2.03	2.32	1.5	1.44	1.75	0.339	0.136	1.69

HCI-017.E2
Conditions	CTG-3D luminescence at 96 h
12.5 pM	1.864 ± 0.0089
0.00025 µM	2.59 ± 0.59
0.005 µM	2.12 ± 0.061
0.1 µM	2.15 ± 0.59
1 µM	0.869 ± 0.2
10 µM	0.263 ± 0.024
100 µM	0.208 ± 0.047
625 fM	2.26 ± 0.043

CC(C)n1nc(-c2ccc3oc(N)nc3c2)c2c(N)ncnc21 [sapanisertib]
CTG-3D luminescence at 96 h
Conditions	12.5 pM	0.00025 µM	0.005 µM	0.1 µM	1 µM	10 µM	100 µM	625 fM
HCI-008, days in culture: 325	1.51	1.96	1.64	0.99	0.826	0.32	0.112	1.88
HCI-008, days in culture: 340	0.668	2.32	1.51	0.592	0.593	–	0.0751	0.965
HCI-008, days in culture: 354	1.18	1.2	2.84	0.615	0.502	0.229	0.122	1.31
HCI-008, days in culture: 382	1.81	1.93	1.22	0.751	0.282	0.304	0.0604	1.7
HCI-017.E2, days in culture: 85	2.14	1.78	2.08	0.908	0.515	0.249	0.14	2.37
HCI-023, days in culture: 223	1.99	3.08	1.41	0.945	0.479	0.703	0.169	2.08
HCI-023, days in culture: 238	1.38	1.49	1.44	0.777	0.723	0.606	0.2	1.64
HCI-023, days in culture: 252	2.43	1.86	1.79	1.19	0.654	0.535	0.388	1.93
HCI-024, days in culture: 202	1.13	0.881	0.616	0.616	0.515	0.634	0.155	1.14
HCI-024, days in culture: 231	1.11	1.3	1.01	0.69	0.589	0.241	0.0656	0.868
HCI-024, days in culture: 254	2.43	1.09	1.25	1.1	0.518	0.541	0.118	1.6
HCI-025, days in culture: 175	1.69	1.73	1.62	0.506	0.401	0.466	0.283	2.01
HCI-025, days in culture: 189	2.16	2.67	1.63	0.619	0.34	0.244	0.0962	3.34
HCI-025, days in culture: 212	1.26	1.57	2.69	0.0755	0.227	0.183	0.277	1.33
HCI-025, days in culture: 224	2.13	1.98	1.91	0.411	0.423	0.26	0.17	1.86

HCI-017.E2
Conditions	CTG-3D luminescence at 96 h
12.5 pM	2.17 ± 0.34
0.00025 µM	2.44 ± 0.51
0.005 µM	1.79 ± 0.052
0.1 µM	0.877 ± 0.12
1 µM	0.558 ± 0.031
10 µM	0.399 ± 0.099
100 µM	0.125 ± 0.061
625 fM	2.58 ± 0.079

CS(=O)(=O)CCNCc1ccc(-c2ccc3ncnc(Nc4ccc(OCc5cccc(F)c5)c(Cl)c4)c3c2)o1 [lapatinib]
CTG-3D luminescence at 96 h
Conditions	12.5 pM	0.00025 µM	0.005 µM	0.1 µM	1 µM	10 µM	100 µM	625 fM
HCI-008, days in culture: 325	1.68	1.81	1.73	3.2	2.32	0.898	0.0242	1.5
HCI-008, days in culture: 340	1.22	2.1	1.96	1.35	2.47	–	0.0374	1.39
HCI-008, days in culture: 354	1.62	1.04	2.27	1.42	1.52	0.935	0.00653	1.13
HCI-008, days in culture: 382	1.61	1.47	1.81	1.52	1.25	0.425	0.00105	1.22
HCI-017.E2, days in culture: 85	2.34	1.93	1.68	2.32	1.61	0.581	0.0189	2.45
HCI-023, days in culture: 223	1.82	2.13	1.85	2.09	1.46	0.716	0.00541	1.72
HCI-023, days in culture: 238	1.38	1.57	1.41	1.6	1.91	0.911	0.00517	1.57
HCI-023, days in culture: 252	2.21	2.11	1.77	1.94	1.86	1.14	0.00206	1.9
HCI-024, days in culture: 202	1.02	1.45	1.36	0.838	0.917	0.832	0.0105	1.54
HCI-024, days in culture: 231	0.876	1.18	1.07	1.57	1.44	0.512	0.00851	1.39
HCI-024, days in culture: 254	1.47	0.96	1.64	2.25	1.02	0.584	0.0095	1.76
HCI-025, days in culture: 175	1.92	2.05	1.45	2.22	2.73	1.66	0.00817	1.88
HCI-025, days in culture: 189	1.99	2.19	1.58	3.08	1.26	0.872	0.00432	2.46
HCI-025, days in culture: 212	1.59	3.22	4.13	3.86	1.17	0.527	0.00417	1.69
HCI-025, days in culture: 224	2.14	1.93	1.8	1.82	1.84	0.896	0.000609	1.83

HCI-017.E2
Conditions	CTG-3D luminescence at 96 h
12.5 pM	2.11 ± 0.029
0.00025 µM	2.75 ± 0.76
0.005 µM	2.4 ± 0.061
0.1 µM	2.37 ± 0.3
1 µM	1.95 ± 0.13
10 µM	0.905 ± 0.14
100 µM	0.00683 ± 0.0022
625 fM	2.65 ± 0.43

— the supplement of paper PMC8882468
